Literature values as cited in publication PMC12664280, “Integrative transcriptomics and peptidomics approach reveals unexpectedly diverse endogenous secretory peptides in Odorrana grahami frog skin” (BMC Biology, 2025).
Bridges are numbered along the chain shown (N, C = ends). Where no end group is shown, it is not given here.

System: skin wound
Settings: previously reported ESPs in Odorrana grahami, Table S1; cited from earlier work
From the text: Supplement 12915_2025_2463_MOESM1_ESM.xlsx, sheet "Table S1" | column: Previously reported ESPs in Odorrana grahami || The cathelicidin family: In this study, we report two new ESPs, OG-CATH1 and OG-CATH2, with OG-CATH1 corresponding to two precursor proteins. These peptides are similar to OL-CATH1 and OL-CATH2 from the skin of O. livida, and Cathelicidin-RC1 from frog L. catesbeianus (Fig. S12). However, they show low similarity (20.3%, data not shown) to Cathelicidin-OA1 from the skin of O. andersonii.

Row | Substance | Functional effect: wound-healing
1 | ATAWDFGPHGLLPIRPIRIRPLCG [odorranain-M1] | wound-healing
2 | APFRMGICTTN [odorregulin-E1] | wound-healing

System: HaCat cells
Design: method as in PMID 18455266
Settings: mechanically injured HaCat cells; enhancing the expression of CXCL8, TGFβ, COX-2, VEGF and TLR2; ref [94]; cited from earlier work

Row | Substance | In vitro wound healing potential
3 | bombesin | in vitro wound healing potential

System: not given
Settings: annotation in words; no reference given, so it comes from the DADP database (table note); ref DADP database; cited from earlier work
From the text: Supplement 12915_2025_2463_MOESM1_ESM.xlsx, sheet "Table S8" | column: Functional effect

Row | Substance | Functional effect
4 | AVNIPFKVHFRCKAAFC [Ranatuerin-2R-RA2] | antimicrobial
5 | GIFTLIKGAAKLIGKTVAKEAGKTGLELMACKITNQC [Esculentin-2-RA2] | antimicrobial
6 | GLLDTFKNLALNAAESAGVSVLNSLSCKLSKTC [Brevinin-2-RA5] | antimicrobial
7 | GVLATVKNLLNGTGDGAAQSVLKTLSCKLSNDC [Brevinin-2-OA8] | antimicrobial
8 | DANVENGEDAEDLTDKFIGLMG [Andersonin-6] | immunomodulating
9 | GVLGTVKDLLIGAGKSAAQSTLKTLSCKISNDC [Brevinin-2-OA7] | antimicrobial
10 | GLLRASSVWGRKYYVDLAGCAKA [Odorranain-W-RA1] | antimicrobial
11 | GLFSKFAGKGIKNLIFKGVKHIGKEVGMDVIRTGIDVAGCKIKGEC [Esculentin-1-RA7] | antimicrobial
12 | GIFLKVLGVGKKVLCGVSGLC [Nigrocin-1-OA3] | antimicrobial
13 | VIPFVASVAAEMMQHVYCAASKKC [Odorranain-P-RA2] | antimicrobial
14 | GLLDGILNANFNAAKSAGTSVLNALSCKLSKTC [Brevinin-2-OA5] | antimicrobial
15 | ATNIPFKVHFRCKAAFC [Ranatuerin-2R-RA1] | antimicrobial
16 | GLLSGVLGVGKKIVCGLSGLC [Nigrosin-RA3] | antimicrobial
17 | FLPAVIRVAANVLPTAFCAISKKC [Brevinin-1-RAA10] | antimicrobial
18 | GILDTFKNMALNAAKSAGVSVLNALSCKLSKTC [Brevinin-2-RA9] | antimicrobial
19 | GLFTKFAGKGIKDLIFKGVKHIGKEVGMDVIRTGIDVAGCKIKGEC [Esculentin-1-RA4] | antimicrobial
20 | GLFSKFAGKGIKNFLNKGVKHIGKE [Esculentin-1-OA6] | antimicrobial
21 | FLPPSPWKETFRTS [Odorranain-S-RA] | antimicrobial
22 | GVLATVKNLLIGTGDGAAQSVLKTLSCKLSNDC [Brevinin-2-OA6] | antimicrobial
23 | GLLDTFKNLALNAAKSAGVSVLNSLSCKLSKTC [Brevinin-2-RA11] | antimicrobial
24 | GLFSKFVGKGIKNFLIKGVKHIGKEVGMDVIRVGIDVAGCKIKGVC [Esculentin-1-OA1] | antimicrobial
25 | VIVFVASVAAEMMQHVYCAASKKC [Odorranain-P-RA1] | antimicrobial
26 | GLLDTFKNMALNAAKSAGVSVLNALSCKLSKTC [Brevinin-2-OA2] | antimicrobial

Row | Substance | Functional effect
27 | GFMATAKNVAKNMDVTLLDNLKCKITKAC [Odorranain-F-OA4] | antimicrobial
28 | GFMDTAKNVAKNMAGNLLDNLKCKITKAC [Odorranain-F-OA1] | antimicrobial
29 | GLFTLIKGAAKLIGKTVAKEAGKTGLELMACKITNQC [Esculentin-2-OA3] | antimicrobial
30 | GCSRWIIGIHGQICRD [Odorranain-U-RA] | antimicrobial
31 | FLPKLFAGIISKNF [Andersonin-Y2] | antimicrobial
32 | VVKCSYRLGSPDSQCN [Odorranain-A-RA7] | antimicrobial
33 | DCTRWIIGINGRICRD [Nigroain-E-RA] | antimicrobial
34 | GLLDTFKNMAINAAHGAGVSVLNALSCKLKKTC [Brevinin-2-OA3] | antimicrobial
35 | GLFSKFAGKGIVNFLIEGVE [Andersonin-X1] | antimicrobial
36 | GFMDTAKNVAKNMAVTLLDNLKCKITKAC [Odorranain-F-RA1] | antimicrobial
37 | GLLSGILGAGKHIVCGLSGLC [Nigrosin-RA2] | antimicrobial
38 | GLFSKFAGKGIKDLIFKGVKHIGKEVGMDVIRTGIDVAGCKIKGEC [Esculentin-1-RA8] | antimicrobial
39 | GLFSKFAGKGIKNFLIKGVKHIGKEVGMDVIRTGIDVAGCKIKGEC [Esculentin-1-RA5] | antimicrobial
40 | AALRGCWTKSIPPKPCSGKR [Odorranain-B-RA1] | antimicrobial
41 | GLFTLIKGAYKNDAPTVACN [Odorranain-J-OA2] | antimicrobial
42 | GIFGKILGVGKKTLCELSGMC [Nigrocin-1-OA2] | antimicrobial
43 | GLFTLIKGAAKLIGKTTAKEAGKTGKLEMACKITNQC [Esculentin-2-OA2] | antimicrobial
44 | GLFTLIKGAYKLDAPTVACN [Odorranain-J-OA1] | antimicrobial
45 | FLPKLFAKITKKNMAHIR [Andersonin-Y1] | antimicrobial
46 | GLFSKFSGKGIKNFLIKGVKHIGKEVGMDVIRTGIDVAGCKIKGEC [Esculentin-1-OA2] | antimicrobial
47 | FMPILSCSRFKRC [Odorranain-G-RA2] | antimicrobial
48 | GFMDTAKNVAKNEAGNLLDNLKCKITKAC [Odorranain-F-OA3] | antimicrobial

Same assay, conditions: annotation in words; ref [4]; cited from earlier work

Row | Substance | Functional effect
49 | QMFHLWYLRHMKNKKPMA [Andersonin-X] | Insulin-Releasing, immunomodulating
50 | VVKFSYRKGSPAPQKN [Odorranain-A-OA12] | immunomodulating
51 | GLLSGINAEWPC [OA-GL12] | wound-healing
52 | FIFPKKNIINSLFGR [Andersonin-I1] | antimicrobial, Insulin-Releasing, immunomodulating
53 | VAIYGRDDRSDVCRQVQHNWLVCDTY [Andersonin-M3] | immunomodulating
54 | TSRCIFYRRKKCS [Andersonin-G] | antimicrobial,Insulin-Releasing
55 | ENMFNIKSSVESDSFWG [Andersonin-N1] | Insulin-Releasing, immunomodulating

System: not given
Settings: previously reported ESPs in Odorrana grahami, Table S1; cited from earlier work
From the text: (§1) Supplement 12915_2025_2463_MOESM1_ESM.xlsx, sheet "Table S1" | column: Previously reported ESPs in Odorrana grahami

Row | Substance | Functional effect: lectin | Functional effect: myotropic activities
56 | YASPKCFRYPNGVLACT [odorranalectin] | lectin | 
57 | RPPGFTPFR [Thr6-bradykinin] |  | myotropic activities
58 | QSTYRAPQWAVGHLM [odorranain-BLP-2] |  | myotropic activities
59 | QREYRTPHWAIGHFM [odorranain-BLP-3] |  | myotropic activities
60 | DDTEDLANKFIGLM [tachykinin_OG1] |  | myotropic activities
61 | RPPGLTPFR [Leu5Thr6-bradykinin] |  | myotropic activities
62 | QRECRAPHWAIGHFM [odorranain-BLP-1] |  | myotropic activities
63 | QREYRAPHWAIGHFM [odorranain-BLP-4] |  | myotropic activities
64 | RPPGFSPFR [bradykinin] |  | myotropic activities
65 | DDASDRAKKFYGLM [ranamargarin] |  | myotropic activities
66 | QNTYRAPQWAVGHLM [odorranain-BLP-5] |  | myotropic activities

Same assay, conditions: previously reported ESPs in Odorrana grahami, Table S1; discovered in brain only; cited from earlier work

Row | Substance | Functional effect: opioid peptide
67 | DYTIRTRLHQESSRKVL [odorranaopin] | opioid peptide discovered in brain ONLY

System: NO release
Settings: previously reported ESPs in Odorrana grahami, Table S1; cited from earlier work
From the text: as §1

Row | Substance | Functional effect: inhibits NO release
68 | GLGGAKKNFIIAANKTAPQSVKKTFSCKLYNG [odorranain-E1] | inhibits NO release
69 | GLFGKILGVGKKVLCGLSGMC (disulfide 15-21 (inferred)) [nigrocin-2GRb, FSAP family mature peptide identified via LC-MS/MS in O. grahami skin secretion] | inhibits NO release

System: trypsin
Settings: previously reported ESPs in Odorrana grahami, Table S1; cited from earlier work
From the text: as §1

Row | Substance | Functional effect: trypsin inhibitor
70 | AALKGCWTKSIPPKPCFGKR [odorranain-B1] | trypsin inhibitor
71 | AVNIPFKVHFRCKAAFC (disulfide 12-17 (inferred)) [OGTI, FSAP family mature peptide identified via LC-MS/MS in O. grahami skin secretion] | trypsin inhibitor
